The source of these data is ChEMBL document CHEMBL1201862, “PubChem BioAssay data set” (2004).

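Method: 48-hour compound exposure of cells in 96-well plates, five concentrations, linear interpolation of endpoints. GI50: concentration for 50% inhibition of growth.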 Calls of active or inactive are those of the source. Cut-off read from the data, not from the text of the source: active = GI50 up to about 1.1 µM and inactive = higher. Some results are limits rather than exact numbers.

Common to all, as to experiment: DTP human tumour cell line panel, 48 h
For experiment [1], the system named is SK-MEL-2.
Experiment [2] relates to LOX IMVI.
Experiment [3] has as its system HOP-62.
The subject of experiment [4] is MOLT-4.
Experiment [5] has as its system BT-549.
In experiment [6] the test system is HCT-116.
Experiment [7] concerns UACC-62.
Experiment [8] concerns ACHN.
For experiment [9], the system named is HCT-15.
Experiment [10] relates to RXF 393.
Experiment [11] deals with PC-3.
Experiment [12] deals with Malme-3M.
Experiment [13] relates to COLO 205.
The subject of experiment [14] is CAKI-1.
The test system of experiment [15] is MDA-MB-231.
The test system of experiment [16] is KM12.
Experiment [17] concerns OVCAR-3.
For experiment [18], the system named is SNB-19.
Experiment [19] has as its system SK-MEL-5.

As usually defined, the GI50 is the concentration giving 50% growth inhibition. As to `Nc1nc(-c2ccccc2)c(-c2ccccc2)c(-c2nc(N)nc(-c3ccccc3)c2-c2ccccc2)n1`, the GI50 in experiment [1], in experiment [2], in experiment [3], in [4], in experiment [5] and in experiment [6] was > 100 µM (inactive) throughout. For the same molecule, the GI50 in experiment [7] was 85.3 µM (inactive); in experiment [8], > 100 µM (inactive); in [9], above 100 µM; in experiment [10] it was 94 µM (inactive); in [11] it was > 100 µM (inactive); in [12], > 100 µM (inactive). For the same molecule, the GI50 was > 100 µM (inactive) in experiment [13]; > 100 µM (inactive) in experiment [14]; > 100 µM (inactive) in [15]; > 100 µM (inactive) in [16]; 83.2 µM (inactive) in experiment [17]; > 100 µM (inactive) in experiment [18]. Further, the GI50 in [19] is > 100 µM (inactive).
Consider `C/C(=N/NC(=S)Nc1ccc(C)cc1)c1ccccn1`, for which the GI50 in [1] is 1.41 µM (inactive); in experiment [2], 0.0162 µM (active); in experiment [3] it was 0.029 µM (active); in experiment [4] it was < 0.0122 µM (active); in [5], 4.38 µM (inactive); in experiment [6], < 0.0146 µM (active). Further, the GI50 in experiment [7] was 0.105 µM (active); in [8] it was 0.0515 µM (active); in [9], 0.0221 µM; in experiment [10] it was 0.78 µM (active); in experiment [11], < 0.0153 µM (active); in [12] it was 0.505 µM (active). The GI50 was < 0.0166 µM (active) in experiment [13]; 0.0968 µM (active) in experiment [14]; < 0.0154 µM (active) in experiment [15]; 0.122 µM (active) in experiment [16]; 0.0179 µM (active) in experiment [17]; 2.29 µM (inactive) in [18]. For the same molecule, the GI50 in experiment [19] is 0.12 µM (active).
As to `CC(C)(C)c1cc(C2=NNC(c3ccccc3)C2)cc(C(C)(C)C)c1O` (stereo unspecified), the GI50 in [1] was 14.8 µM (inactive); in experiment [2] it was 15.9 µM (inactive); in experiment [3] it was 17.1 µM (inactive); in experiment [4], 16.6 µM (inactive); in [5], 17.1 µM (inactive); in [6], 14.2 µM (inactive). The GI50 in [7] is 13.5 µM (inactive); in [8], 16.3 µM (inactive); in [9], 13.8 µM; in experiment [10] it was 10.1 µM (inactive); in experiment [11], 14.6 µM (inactive); in experiment [12] it was 17.9 µM (inactive). The GI50 in [13] is 17.5 µM (inactive); in [14], 12.9 µM (inactive); in experiment [15] it was 14.2 µM (inactive); in experiment [16], 13.6 µM (inactive); in experiment [17] it was 3.88 µM (inactive); in experiment [18], 18 µM (inactive). Moreover, the GI50 in experiment [19] is 11 µM (inactive).
In the case of `O=c1[nH]nc(-c2ccccc2)n1/N=C/c1ccc([N+](=O)[O-])cc1`, the GI50 in experiment [1] is 19.1 µM (inactive); in experiment [2] it was 31.1 µM (inactive); in experiment [3] it was 11 µM (inactive); in experiment [4] it was > 100 µM (inactive); in [5], > 100 µM (inactive); in [6], 25 µM (inactive). Also, the GI50 was > 53.8 µM (inactive) in experiment [7]; 11.4 µM (inactive) in [8]; above 100 µM in [9]; 8.43 µM (inactive) in experiment [10]; > 100 µM (inactive) in experiment [11]; > 100 µM (inactive) in experiment [12]. Besides, the GI50 in experiment [13] was > 100 µM (inactive); in experiment [14] it was 12.3 µM (inactive); in experiment [15] it was > 33.2 µM (inactive); in experiment [16] it was > 100 µM (inactive); in experiment [17], 19.7 µM (inactive); in experiment [18] it was 7.78 µM (inactive). Also, the GI50 in experiment [19] is > 100 µM (inactive).
